Results published in ChEMBL document CHEMBL1136256, “alpha1-Adrenoceptor antagonists. 5. Pyridazinone-arylpiperazines. Probing the influence on affinity and selectivity of both ortho-alkoxy groups at the arylpiperazine moiety and cyclic substituents at the pyridazinone nucleus” (Bioorg Med Chem Lett, 2003).

Key:
Type in all cases: tissue-based
[1] = target: T1, Adrenergic receptor alpha-1 (Rattus norvegicus, UniProt P15823+P23944+P43140); assay: Binding affinity towards Alpha-1 adrenergic receptor in rat cerebral cortex using [3H]prazosin
T1 sequence (P15823 whole entry): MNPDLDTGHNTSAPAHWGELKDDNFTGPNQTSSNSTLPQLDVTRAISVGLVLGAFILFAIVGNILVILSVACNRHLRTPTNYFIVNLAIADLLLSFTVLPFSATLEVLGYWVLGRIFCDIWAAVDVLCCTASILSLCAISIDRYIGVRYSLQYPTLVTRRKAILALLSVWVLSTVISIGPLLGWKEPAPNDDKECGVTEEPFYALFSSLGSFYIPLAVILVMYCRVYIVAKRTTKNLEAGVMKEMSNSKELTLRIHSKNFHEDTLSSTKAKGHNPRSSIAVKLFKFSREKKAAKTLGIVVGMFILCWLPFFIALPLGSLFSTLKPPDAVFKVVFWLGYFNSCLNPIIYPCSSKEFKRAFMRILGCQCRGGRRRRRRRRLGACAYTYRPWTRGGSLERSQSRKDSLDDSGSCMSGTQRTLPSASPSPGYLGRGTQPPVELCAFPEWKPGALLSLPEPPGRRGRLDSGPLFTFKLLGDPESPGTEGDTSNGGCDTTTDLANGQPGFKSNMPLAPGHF
T1 sequence (P23944 whole entry): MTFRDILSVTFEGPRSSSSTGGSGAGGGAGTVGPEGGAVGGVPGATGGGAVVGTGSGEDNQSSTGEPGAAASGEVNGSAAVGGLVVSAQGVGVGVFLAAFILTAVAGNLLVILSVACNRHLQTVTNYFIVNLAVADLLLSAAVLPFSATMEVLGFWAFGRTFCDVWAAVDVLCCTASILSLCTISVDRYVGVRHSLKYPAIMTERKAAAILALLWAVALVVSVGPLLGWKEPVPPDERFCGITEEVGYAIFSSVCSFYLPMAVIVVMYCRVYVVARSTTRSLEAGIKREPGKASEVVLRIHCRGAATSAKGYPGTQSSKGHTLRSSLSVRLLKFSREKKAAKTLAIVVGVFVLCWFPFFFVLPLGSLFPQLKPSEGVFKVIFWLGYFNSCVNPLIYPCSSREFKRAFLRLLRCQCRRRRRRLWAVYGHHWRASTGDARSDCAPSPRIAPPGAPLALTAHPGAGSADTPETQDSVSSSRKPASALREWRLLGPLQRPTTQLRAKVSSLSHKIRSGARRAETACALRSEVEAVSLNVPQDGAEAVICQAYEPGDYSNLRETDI
T1 sequence (P43140 whole entry): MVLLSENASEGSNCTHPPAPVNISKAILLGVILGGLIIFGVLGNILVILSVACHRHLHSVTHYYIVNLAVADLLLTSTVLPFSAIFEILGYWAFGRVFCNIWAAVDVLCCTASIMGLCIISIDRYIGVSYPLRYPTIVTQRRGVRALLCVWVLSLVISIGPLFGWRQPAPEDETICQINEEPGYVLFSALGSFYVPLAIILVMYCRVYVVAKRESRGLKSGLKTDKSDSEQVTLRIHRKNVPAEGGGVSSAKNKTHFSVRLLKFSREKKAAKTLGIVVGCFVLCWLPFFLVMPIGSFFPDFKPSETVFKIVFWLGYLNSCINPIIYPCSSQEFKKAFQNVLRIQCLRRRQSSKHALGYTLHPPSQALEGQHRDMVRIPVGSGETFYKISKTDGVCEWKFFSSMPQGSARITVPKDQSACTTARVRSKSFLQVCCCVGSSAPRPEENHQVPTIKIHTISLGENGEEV

[2] = target: T2, 5-hydroxytryptamine receptor 1A (Rattus norvegicus, UniProt P19327); assay: Binding affinity towards 5-hydroxytryptamine 1A receptor in rat cerebral cortex using [3H]-8-OH-DPAT
T2 sequence (P19327 whole entry): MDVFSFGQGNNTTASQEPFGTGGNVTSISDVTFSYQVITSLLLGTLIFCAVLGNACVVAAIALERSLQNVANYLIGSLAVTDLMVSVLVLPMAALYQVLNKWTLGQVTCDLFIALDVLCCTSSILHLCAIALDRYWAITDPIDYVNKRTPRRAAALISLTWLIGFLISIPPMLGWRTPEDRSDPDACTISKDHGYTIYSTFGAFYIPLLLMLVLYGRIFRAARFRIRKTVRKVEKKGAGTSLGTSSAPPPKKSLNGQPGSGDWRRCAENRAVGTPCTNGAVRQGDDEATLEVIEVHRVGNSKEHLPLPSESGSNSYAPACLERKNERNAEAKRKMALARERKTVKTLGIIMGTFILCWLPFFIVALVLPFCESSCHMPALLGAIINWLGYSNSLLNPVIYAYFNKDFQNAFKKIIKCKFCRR

[3] = target: Adrenergic receptor alpha-2 (Rattus norvegicus) (UniProt P22086+P19328+P22909); assay: Selectivity ratio of Alpha-2 adrenergic receptor by Alpha-1 adrenergic receptor in rat cerebral cortex
[4] = target: T3, Adrenergic receptor alpha-2 (Rattus norvegicus, UniProt P22086+P19328+P22909); assay: Binding affinity towards Alpha-2 adrenergic receptor in rat cerebral cortex using [3H]rauwolscine
T3 sequence (P22086 whole entry): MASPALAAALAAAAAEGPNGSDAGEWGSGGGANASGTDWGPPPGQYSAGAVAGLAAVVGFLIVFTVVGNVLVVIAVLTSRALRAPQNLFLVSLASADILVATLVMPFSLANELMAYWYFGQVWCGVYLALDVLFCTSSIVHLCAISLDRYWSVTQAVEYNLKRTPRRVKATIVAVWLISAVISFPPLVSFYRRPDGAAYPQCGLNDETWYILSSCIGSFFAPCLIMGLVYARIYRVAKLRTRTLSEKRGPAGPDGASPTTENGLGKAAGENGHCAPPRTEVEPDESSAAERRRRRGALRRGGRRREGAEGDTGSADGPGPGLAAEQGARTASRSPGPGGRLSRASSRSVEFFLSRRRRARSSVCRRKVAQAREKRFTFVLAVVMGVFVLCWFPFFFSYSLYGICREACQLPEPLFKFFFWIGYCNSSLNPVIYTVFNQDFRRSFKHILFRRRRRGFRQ
T3 sequence (P19328 whole entry): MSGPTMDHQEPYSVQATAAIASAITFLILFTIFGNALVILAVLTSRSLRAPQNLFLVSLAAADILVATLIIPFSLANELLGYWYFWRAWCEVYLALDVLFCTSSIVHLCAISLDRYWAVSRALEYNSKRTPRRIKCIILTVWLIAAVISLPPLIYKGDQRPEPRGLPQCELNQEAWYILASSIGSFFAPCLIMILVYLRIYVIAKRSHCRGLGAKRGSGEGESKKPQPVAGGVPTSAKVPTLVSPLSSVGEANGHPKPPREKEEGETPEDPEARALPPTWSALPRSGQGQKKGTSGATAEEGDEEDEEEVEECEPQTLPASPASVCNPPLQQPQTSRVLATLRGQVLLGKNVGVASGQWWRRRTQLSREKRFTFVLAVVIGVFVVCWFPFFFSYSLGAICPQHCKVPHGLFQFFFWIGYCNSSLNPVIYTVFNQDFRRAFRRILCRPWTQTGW
T3 sequence (P22909 whole entry): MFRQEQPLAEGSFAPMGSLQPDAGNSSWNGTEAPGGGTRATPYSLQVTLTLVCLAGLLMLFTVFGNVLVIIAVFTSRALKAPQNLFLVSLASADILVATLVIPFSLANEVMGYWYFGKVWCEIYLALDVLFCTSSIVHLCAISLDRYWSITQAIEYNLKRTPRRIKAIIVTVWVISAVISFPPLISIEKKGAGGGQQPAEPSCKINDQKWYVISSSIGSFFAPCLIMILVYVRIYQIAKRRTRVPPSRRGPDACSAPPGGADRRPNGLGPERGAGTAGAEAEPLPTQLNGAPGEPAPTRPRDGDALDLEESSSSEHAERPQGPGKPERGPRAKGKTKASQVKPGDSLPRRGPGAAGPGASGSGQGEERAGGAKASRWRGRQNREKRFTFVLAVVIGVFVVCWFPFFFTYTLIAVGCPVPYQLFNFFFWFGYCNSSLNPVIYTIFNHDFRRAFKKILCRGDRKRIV

[5] = target: T2, 5-hydroxytryptamine receptor 1A; assay: Binding affinity towards 5-hydroxytryptamine 1A receptor in rat cerebral cortex

Row | Compound | Ki [1] [pM] | Ki [2] [pM] | Selectivity ratio [3] | Ki [4] [pM] | Ki [5] [pM]
1 | CCOc1ccccc1OCCN1CCN(c2cnn(CCCCCCCN3CCN(c4ccccc4OCC)CC3)c(=O)c2Cl)CC1 | 430 | 220 | 5 | 2000 | 
2 | COc1ccccc1OCCN1CCN(c2cnn(CCCCCCCN3CCN(c4ccccc4OC)CC3)c(=O)c2Cl)CC1 |  |  | 3 |  | 
3 | CC(C)Oc1ccccc1N1CCN(CCCCCCCn2ncc(N3CCN(C(=O)c4ccco4)CC3)c(Cl)c2=O)CC1 | 52 | 800 | 11 | 560 | 
4 | CCOc1ccccc1N1CCN(CCCCCCCn2ncc(N3CCN(C(=O)c4ccco4)CC3)c(Cl)c2=O)CC1 | 500 |  | 8 | 4000 | 
5 | COc1ccccc1N1CCN(CCCCCCCn2ncc(N3CCN(C(=O)c4ccco4)CC3)c(Cl)c2=O)CC1 |  |  | 274 |  | 

Results, then the compound that gave them:

Row | Ki [1] [pM] | Ki [2] [pM] | Selectivity ratio [3] | Ki [4] [pM] | Ki [5] [pM] | Compound
6 | 580 |  | 14 | 8200 |  | CCOc1ccccc1N1CCN(CCCCCCCn2ncc(N3CCN(CCOc4ccccc4OC)CC3)c(Cl)c2=O)CC1
7 | 550 | 160 | 3 | 1600 |  | CCOc1ccccc1OCCN1CCN(c2cnn(CCCCCCCN3CCN(c4ccccc4OC)CC3)c(=O)c2Cl)CC1
8 | 260 |  | 12 | 3200 | 820 | CCOc1ccccc1OCCN1CCN(c2cnn(CCCCCCCN3CCN(c4ccccc4OC(C)C)CC3)c(=O)c2Cl)CC1
